Drawing on PubChem BioAssay AID2060358 (Molecular Pharmacology Branch, DTP, NCI, 2025), this text covers viability, T/C and IC50 for eleven compounds.

The test system of this assay is 254851-301-R-J1-PDC spheroids, viability % test/control. Put plainly: Anticancer human tumor 254851-301-R-J1-PDC patient-derived colon carcinoma cell line growth inhibition [TAK]. The note with it: spheroids with HUVEC and MSC; for viability, T/C: stronger effect = lower value. From the text: Combinatorial screen of targeted agents with TAK-243 and ipatasertib in multi-cell type tumor spheroids
A high-throughput screen of multi-cell type tumor spheroids was designed to identify active combinations of targeted small molecules and TAK-243 or ipatasertib. Complex spheroids include a stromal component modeled by human endothelial cells (HUVEC) and fibroblasts modeled by human mesenchymal stem cells (MSCs). The concentration ranges selected for each drug and investigational agent were based upon clinically achievable concentrations if the clinical Cmax of the agent was known.
Compounds. The drugs and investigational agents: TAK-243 (785004), ipatasertib (767898), everolimus (733504), selumetinib (741078), bortezomib (756655), trametinib (758246), ixazomib (758254), vemurafenib (761431), dabrafenib (764134), sapanisertib (764658), alpelisib (765974), and copanlisib (816437), were obtained from the National Cancer Institute (NCI) Developmental Therapeutics Program Chemical Repository. The FDA-approved anticancer drug set is available from the NCI Developmental Therapeutics Program. […] The stock solutions were prepared in dimethyl sulfoxide (DMSO, Sigma-Aldrich, St. Louis, MO, cat. D2650) at 800-fold the tested concentration and stored at -70 degrees C prior to their use. All drugs and investigational agents were tested over a range starting from a high concentration at or near the clinical Cmax and decreasing in half-log increments. If the clinical Cmax for an agent had not been determined, the highest concentration tested was 10 microM.
NCI60 Cell Culture. NCI60 cell lines were obtained from the NCI Developmental Therapeutics Program Tumor Repository. For each lot of cells, the Repository performed Applied Biosystems AmpFLSTR Identifiler testing with PCR amplification to confirm consistency with the published Identifier STR profile for each cell line. Cells were kept in continuous culture for no more than 20 passages. The optimal seeding densities for each of the cell lines at each time point assessed were determined prior to performing the concentration response studies. Briefly, the NCI60 human tumor lines were grown as monolayers in RPMI 1640 medium supplemented with 10% FBS and 2 mmol/L L-glutamine.
An additional 2 lines were from the NCI60 cell line panel including melanomas, MALME-3M and SK-MEL-2. Pooled donor human umbilical vein endothelial cells (HUVEC, Lonza, cat. CC-2519) and human mesenchymal stem cells (hMSC, Lonza, cat. PT-2501) were purchased from Lonza (Walkersville, MD).
PDMR cell lines were grown in complete medium (DC medium): Dulbecco's modified Eagle's medium (DMEM)/F12 supplemented with 5% fetal bovine serum (FBS), 2 mM L-glutamine, 100 U/mL penicillin and 100 µg/ml streptomycin, 0.4 µg/ml hydrocortisone, 10 ng/ml epidermal growth factor (EGF) recombinant human protein, 24 µg/mL adenine, and 0.1 mg/mL primocin. During culture from frozen stock vials, PDMR cells were cultured in the same medium containing 10 µM Y-27632 (see Table 3). The PDCs were cultured in complete DMEM/F12 media without 10 microM Y-27632 dihydrochloride for at least two passages prior to the screen. The pooled donor HUVEC and hMSC were cultured in endothelial cell growth medium 2 (PromoCell, Heidelberg, Germany, cat. C-22011) and mesenchymal stem cell growth medium 2 (PromoCell, cat. C-28009), respectively. For all experiments, HUVEC and hMSC were used at passages </=5.
For the pre-screen, cell seeding densities were determined from a titration spanning the range from 5,000 to 313 cells per well. The mct-spheroids including 60% malignant cells, 25% HUVEC and 15% MSC dispensed as a mixture into U-bottom Ultra-Low Attachment 384-well plates (Corning, NY)
High-throughput Drug Combination Screening.
Prior to their inoculation into 384-well plates, malignant cells, HUVEC, and hMSC were removed from T flasks using TrypLE express (Thermo Fisher Scientific, cat. 12605036) and harvested by centrifugation for 5 min at 233 x g. […]

Each structure is given as a SMILES string. Values joined by “and” are separate entries in the source; they are usually repeats but may differ in a detail not shown here. Equal values may be shown once.
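Also: spheroids exposed to drugs for seven days before viability readout.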

For orientation: viability, T/C means the result in the treated group divided by that in the control group, in per cent. By IC50 is commonly meant the midpoint of a concentration-inhibition curve. Consider `CC(=O)Nc1cccc(-n2c(=O)n(C3CC3)c(=O)c3c(Nc4ccc(I)cc4F)n(C)c(=O)c(C)c32)c1`, for which the viability, T/C is, setting by setting: (compound 94.9 pM) 117% and 114%; (compound 0.0003 µM) 114% and 116%; (compound 0.000949 µM) 105% and 107%; (compound 0.003 µM) 117% and 99%; (compound 0.00949 µM) 97.5% and 83.9%; (compound 0.03 µM) 16.8% and 18.9%. The IC50 (curve of compound) was 18.7 nM and 17 nM.

For the compound `CC(C)(C)c1nc(-c2cccc(NS(=O)(=O)c3c(F)cccc3F)c2F)c(-c2ccnc(N)n2)s1`, the viability, T/C is 116% and 118% (compound 0.0316 µM); 105% (compound 0.1 µM); 92.3% and 86.4% (compound 0.316 µM); 82.1% and 82.5% (compound 1 µM); 86.8% and 82.2% (compound 3.16 µM); 80.3% and 77.6% (compound 10 µM). Also, for the setting “curve of compound”, the 50% inhibitory concentration (IC50) was more than 10000 nM.

With `CC(C)CC(NC(=O)C(Cc1ccccc1)NC(=O)c1cnccn1)B(O)O` (configuration not stated), the viability, T/C is, setting by setting: (compound 31.6 pM) 118% and 114%; (compound 0.0001 µM) 107%; (compound 0.000316 µM) 111% and 101%; (compound 0.001 µM) 98.9% and 100%; (compound 0.00316 µM) 98.5% and 99.1%; (compound 0.01 µM) 75.7% and 80.8%. Where the note is “curve of compound”, the half-maximal inhibitory concentration (IC50) was more than 10 nM.

As to `CC(C)CC(NC(=O)CNC(=O)c1cc(Cl)ccc1Cl)B1OC(=O)CC(CC(=O)O)(C(=O)O)O1` (configuration not stated), the viability, T/C is 110% and 112% (compound 0.000316 µM); 110% (compound 0.001 µM); 96.8% and 99.7% (compound 0.00316 µM); 94.7% and 102% (compound 0.01 µM); 78.2% (compound 0.0316 µM); 18.6% and 24.4% (compound 0.1 µM). For the same compound, for the setting “curve of compound”, the IC50 is 53.2 nM and 58.1 nM.

As to `CC(C)NCC(C(=O)N1CCN(c2ncnc3c2C(C)CC3O)CC1)c1ccc(Cl)cc1` (configuration not stated), the viability, T/C (compound 0.3 µM) is 91.8% [middle of 10 runs]; the viability, T/C (compound 0.949 µM) was 91.8% [middle of 10 runs]; the viability, T/C (compound 3 µM) was 95% [middle of 10 runs]; the viability, T/C (compound 9.49 µM) is 91.9% [middle of 10 runs]; the viability, T/C (compound 30 µM) is 86% [middle of 10 runs]. In addition, the IC50 was more than 30000 nM (compound alone, run of 02/28/2020) and more than 30000 nM (compound alone, run of 03/19/2020).

Regarding `CC(C)n1nc(-c2ccc3oc(N)nc3c2)c2c(N)ncnc21`, the viability, T/C runs as follows: (compound 0.000316 µM) 125% and 110%; (compound 0.001 µM) 104% and 109%; (compound 0.00316 µM) 89.8% and 90.4%; (compound 0.01 µM) 76.5% and 81.7%; (compound 0.0316 µM) 55.7% and 52.2%; (compound 0.1 µM) 34.5% and 34.2%. Besides, where the note is “curve of compound”, the half-inhibitory concentration (IC50) was 42.5 nM and 40.3 nM.

In the case of `CCCS(=O)(=O)Nc1ccc(F)c(C(=O)c2c[nH]c3ncc(-c4ccc(Cl)cc4)cc23)c1F`, the viability, T/C was 109% and 106% (compound 0.316 µM); 93.3% and 90.5% (compound 1 µM); 84.6% and 79.4% (compound 3.16 µM); 72.3% and 77.4% (compound 10 µM); 73.7% and 71.4% (compound 31.6 µM); 63.9% and 73.8% (compound 100 µM). The concentration for half-maximal inhibition (IC50) (curve of compound) was more than 100000 nM.

With `COC1CC2CCC(C)C(O)(O2)C(=O)C(=O)N2CCCCC2C(=O)OC(C(C)CC2CCC(OCCO)C(OC)C2)CC(=O)C(C)C=C(C)C(O)C(OC)C(=O)C(C)CC(C)C=CC=CC=C1C` (configuration not stated), the viability, T/C is 114% and 108% (compound 0.000316 µM); 109% and 92% (compound 0.001 µM); 101% and 89.6% (compound 0.00316 µM); 101% and 91.6% (compound 0.01 µM); 96% and 85.4% (compound 0.0316 µM); 98.1% and 84% (compound 0.1 µM). Under “curve of compound”, the half-maximal inhibitory concentration (IC50) is more than 100 nM.

Turning to `COc1c(OCCCN2CCOCC2)ccc2c3n(c(=NC(=O)c4cnc(N)nc4)nc12)CCN3`, the viability, T/C is 110% and 106% (compound 0.00316 µM); 96.2% and 96.4% (compound 0.01 µM); 87.8% and 82.2% (compound 0.0316 µM); 78% and 71.7% (compound 0.1 µM); 75.6% and 65.8% (compound 0.316 µM); 59.5% and 56.5% (compound 1 µM). The IC50 (curve of compound) was more than 1000 nM.

With `Cc1nc(NC(=O)N2CCCC2C(N)=O)sc1-c1ccnc(C(C)(C)C(F)(F)F)c1` (configuration not stated), the viability, T/C reads like this: (compound 0.0316 µM) 123% and 110%; (compound 0.1 µM) 103% and 110%; (compound 0.316 µM) 95.7% and 91.7%; (compound 1 µM) 92.6% and 92.3%; (compound 3.16 µM) 84% and 79.1%; (compound 10 µM) 70.8% and 71.9%. Also, under “curve of compound”, the concentration for half-maximal inhibition (IC50) was more than 10000 nM.

Consider `Cn1cnc2c(F)c(Nc3ccc(Br)cc3Cl)c(C(=O)NOCCO)cc21`, for which the viability, T/C is 119% and 114% (compound 0.00949 µM); 120% and 117% (compound 0.03 µM); 105% and 117% (compound 0.0949 µM); 103% and 98.6% (compound 0.3 µM); 76.3% and 84.4% (compound 0.949 µM); 12.5% and 22.5% (compound 3 µM). The IC50 (curve of compound) was 1510 nM and 1760 nM.
